Test results as given in US20120132204A1, “UNIT DOSE DRY POWDER INHALER” (priority 2005, published 2012).

Key:
[1] = broad dose range of 1 to 100 mg; cited from earlier work
5-HT receptor = settings: compared within the triptan class; cited from earlier work
plasma proteins = settings: cited from earlier work
[2] = preclinical pharmacology studies; cited from earlier work
[3] = test system: cytochrome P450 isoenzymes; settings: cited from earlier work
migraine = settings: cited from earlier work
[4] = Particle size of spray-dried powder (Predictive Example); assay type: physicochemical; settings: spray dried from 10% w/v feedstock
Method: A feedstock comprising 10% w/v frovatriptan succinate was fed to an in-house spray-dryer and was spray dried at the following settings: feed rate=2.1 g/min, inlet temp=130° C., outlet temp=66° C., atomisation=2-fluid nozzle, atomisation pressure=2 barg, atomisation air flow rate=21 l/min, drying air pressure=1 barg, drying air flow rate=5 l/sec. A respirable powder of less than 10 microns was produced which could then be administered to a patient in need of rapid relief from a migraine using the unit-dose dry powder inhaler of the invention.

SMILES	tolerability [1]	5-HT potency (5-HT receptor)	binding to plasma proteins (plasma proteins)	cerebro-selectivity [2]	inhibiting or inducing effects on cytochrome P450 isoenzymes [3]	response rates (migraine; compared with placebo)	headache recurrence rates (migraine; compared within the triptan class)	particle size of respirable powder [4]
CN[C@@H]1CCc2[nH]c3ccc(C(N)=O)cc3c2C1 [Frovatriptan]	well-tolerated	highest 5-HT potency in the triptan class	only slightly bound	apparently cerebro-selective	no inhibiting or inducing effects	significantly higher response rates compared with placebo	lowest reported range of headache recurrence rates in the triptan class	–
CN[C@@H]1CCc2[nH]c3ccc(C(N)=O)cc3c2C1 [frovatriptan succinate]	–	–	–	–	–	–	–	less than 10 microns
